Laboratory results: US5214156A, “Therapeutically useful tetralin derivatives” (The Upjohn Company, priority 1992, dated 1993)
Where two headings read alike, the source gives them in different places.

How the values were obtained:
dopamine receptors = conditions: background; cited from earlier work
5-HT receptor = test: In-vivo tryptophan hydroxylation (5-HTP formation) in limbic forebrain of reserpine-pretreated rats after NSD 1015; set-up: species or system rat; conditions: limbic brain part
Description: In-vivo determination of rat brain tyrosine and tryptophan hydroxylation after reserpine pretreatment (biochemically monitored dopamine and 5-HT receptor activity)
The compounds under evaluation were tested biochemically for central dopamine and 5-HT receptor (pre- and/or postsynaptic) stimulating activity. The concept of this biochemical screening method is that a dopamine or 5-HT-receptor agonist will stimulate the receptor and through regulatory feedback systems effect a decline in tyrosine or tryptophan hydroxylating activity, respectively, and a subsequent reduction in the synthesis rate for dopamine and 5-HT in the presynaptic neuron. Dopamine and 5-HTP formation, as determined after in-vivo inhibition of the aromatic L-amino acid decarboxylase with NSD 1015 (3-hydroxybenzylhydrazine hydrochloride) are taken as indirect measures of dopamine and 5-HT-synthesis rates, respectively.
(§1) Rats (150-300 g) pretreated with reserpine (5 mg/kg, 18 hours before) were given the test compounds. Gross behavioral observations (changes in motility, hindleg abduction, etc.) were made. Subsequent administration of NSD 1015, decapitation, brain dissection (corpora striata, the limbic forebrain and the remaining hemispheral portions (mainly cortex) or rat brain), homogenization, centrifugation, ion-exchange chromatography and spectrofluorimetric measurements (all as described in detail by Wikstrom, et al., J. Med. Chem., 21, 864-867, 1978 and reference cited therein), or by HPLC/EC, gave the actual dopamine and 5-HTP levels. Several doses (n-4-6) were tested for each compound and brain area. The dose of a compound giving 50% of the maximal reduction of the %-HTP level in the rat brain part was then estimated.
^b Dose giving a half maximal decrease of 5HTP formation in the rat
limbic brain part. The values were estimated from doseresponse curves
comprising 4 to 6 levels (n = 4).
Control level was: 191 ng/g.

[1] = tested on: Reserpine Pretreated Rats; test: Gross behavior (antagonism of reserpine-induced neuroleptic syndrome); type: in vivo, rat
Source text: Antagonism of the reserpine-induced "neuroleptic syndrome" in the rat (gross behavior)
Depletion of the monoamine stores with reserpine brings about a "neuroleptic syndrome" characterized by hypomotility, catalepsy, muscle rigidity, hunch-backed posture as well as a number of other central and peripheral signs of monoamine depletion. The whole or parts of this syndrome can be reversed by the administration of drugs that stimulate dopamine or 5-HT receptors directly or indirectly.
Stimulation of the dopamine receptors, with apomorphine for example, gives rise to both locomotion and stereotyped behavior such as sniffing, gnawing and jumping. On the other hand, stimulation of the 5-HT receptors, with 5-hydroxytryptophane (5-HTP) combined with MAO-inhibitors for example, gives rise to a very different behavior.
as §1
^d The gross behavior of the animals was observed during the course o
the experiments. The 5HT behavioral syndrome consisted of flat body
psoture, abducted hind and forelegs, forepaw treading (pianoplaying) and […]

5-HT1A receptor = molecular target: T1, 5-HT1A receptor (Homo sapiens, UniProt P08908); test: In vitro binding, 5-HT1A
T1 sequence (P08908 1-422): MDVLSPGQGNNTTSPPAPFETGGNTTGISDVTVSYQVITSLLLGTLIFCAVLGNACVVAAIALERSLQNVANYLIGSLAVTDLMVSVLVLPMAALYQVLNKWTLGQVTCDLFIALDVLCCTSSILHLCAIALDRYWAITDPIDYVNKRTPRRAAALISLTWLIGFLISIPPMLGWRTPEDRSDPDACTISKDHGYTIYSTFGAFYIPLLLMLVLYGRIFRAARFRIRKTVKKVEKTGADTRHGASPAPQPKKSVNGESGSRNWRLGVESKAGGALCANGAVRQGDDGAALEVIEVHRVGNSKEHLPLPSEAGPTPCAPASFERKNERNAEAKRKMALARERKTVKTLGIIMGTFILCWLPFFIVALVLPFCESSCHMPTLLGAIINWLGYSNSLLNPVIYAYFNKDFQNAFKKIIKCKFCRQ
Source text: The compounds of this invention where --OR1 is in the 8 position in the aromatic ring are very selective 5-HT1A receptor agonists having little or no dopaminergic activity. […] These compounds are particularly effective anxiolytic and antidepressant agents. Other uses for these compounds include panic attacks, obsessive-compulsive disturbances, and senile dementia particularly the emotional disturbances seen in dementia disorders. In addition, central 5-HT receptor activation are believed to be involved in mediating sexual behavior. These compounds would be useful to stimulate sexual activity and to alleviate impotence.

[2] = Bioavailability from ED50 values after s.c. and p.o. administration; type: in vivo, rat; conditions: comparing ED50 values, reserpine-pretreated rats
Source text: ^f "Bioch" denotes the bioavailability as estimated by comparing the
ED50 values after s.c. and p.o. administration (reserpinepretreated rats)

dopamine D2 receptor = dopamine D2 receptor (Homo sapiens, UniProt P14416); test: In vitro binding, dopamine D2
Sequence of dopamine D2 receptor (P14416 whole entry, species assumed): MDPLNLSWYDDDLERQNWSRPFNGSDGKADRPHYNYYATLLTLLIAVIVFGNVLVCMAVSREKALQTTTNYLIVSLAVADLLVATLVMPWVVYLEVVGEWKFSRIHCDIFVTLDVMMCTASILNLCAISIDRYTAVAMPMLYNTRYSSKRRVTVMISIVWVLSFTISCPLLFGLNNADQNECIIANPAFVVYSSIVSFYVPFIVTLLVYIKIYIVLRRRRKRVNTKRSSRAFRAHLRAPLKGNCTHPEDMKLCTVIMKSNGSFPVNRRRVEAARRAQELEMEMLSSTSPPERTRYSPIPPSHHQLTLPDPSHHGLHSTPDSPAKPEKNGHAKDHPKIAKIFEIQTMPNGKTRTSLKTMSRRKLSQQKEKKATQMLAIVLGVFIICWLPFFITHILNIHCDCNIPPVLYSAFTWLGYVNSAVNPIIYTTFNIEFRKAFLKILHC
Description: ^e The affinity of the test compounds for dopamine D2 receptor sites
was determined by calculating the IC50 value (see text).

[3] = Bioavailability from decrease in rectal temperature after s.c. and p.o. administration; type: in vivo, rat; conditions: rectal temperature decrease after s.c. (25.0 μmol/kg) and p.o. (100.0 μmol/kg); nonpretreated rats
Source text: "Temp" denotes the bioavailabilty as estimated by comparing the decrease
in rectal temperature after s.c. (25.0 μmol/kg) and p.o. (100.0
μmol/kg) administration of the test drugs in nonpretreated rats (c.f.,
FIGS. 1 and 2). "Plasma" denotes the availability as estimated by […]

[4] = Bioavailability from plasma drug levels (GC/MS) after s.c. and p.o. administration; type: in vivo, rat; conditions: plasma drug levels by GC/MS after s.c. and p.o.; nonpretreated rats
Source text: FIGS. 1 and 2). "Plasma" denotes the availability as estimated by
comparing plasma drug levels (measured by means of GC/MS) after s.c. and
p.o. administration of test drugs in nonpretreated rats.

[5] = tested on: spontaneously hypertensive rats; test: Blood pressure lowering in spontaneously hypertensive rats; type: in vivo, rat
Source text: Pharmacol. 37, 263-265 (1984). Without further elaboration,it is believed that one skilled in the art can, using the preceding description, practice the present invention to its fullest extent.

O=C1CC2(CCCC2)CC(=O)N1CCCCN1CCN(c2ncccn2)CC1 [Buspirone]
dopamine receptor antagonism / agonism (dopamine receptors): antagonizes dopamine receptors at the same dose it stimulates 5-HT1A receptors

CCCN(CC1CC1)C1CCc2cccc(OC)c2C1 (stereo not shown) [Example 8-OMe-CPMAT, 8Methoxy-2-(N-cyclopropylmethyl-N-n-propylamino)tetralin]
ED50 5-HTP limb (5-HT receptor; po): 3.3 µmol/kg | ED50 5-HTP limb (5-HT receptor; sc): 0.40 µmol/kg | Behavior ([1]; po): 5-HT syndr | Behavior ([1]; sc): 5-HT syndr | IC50 (5-HT1A receptor; in vitro binding, read-out: In vitro binding 5-HT1A IC50): 6 nM | Bioavailability bioch po/sc [2]: 12%

COc1cccc2c1CC(N(CC1CC1)CC1CC1)CC2 (stereo not shown) [Example 8-OMe-DCPMAT, 8Methoxy-2-(N,N-dicyclopropylmethylamino)tetralin]
ED50 5-HTP limb (5-HT receptor; po): 2.0 µmol/kg | ED50 5-HTP limb (5-HT receptor; sc): 1.2 µmol/kg | Behavior ([1]; po): 5-HT syndr | Behavior ([1]; sc): 5-HT syndr | IC50 (dopamine D2 receptor): 40000 nM | IC50 (5-HT1A receptor): 21 nM | IC50 ratio of dopamine D2 to 5HT1A in vitro binding (selectivity) (5-HT1A receptor; in vitro binding, Table 1 data): demonstrates the selectivity for the 5-HT1A receptor | Bioavailability bioch po/sc [2]: 60% | Bioavailability temp po/sc [3]: 36% | Bioavailability plasma po/sc [4]: 6-16%

COc1cccc2c1C[C@H](N(CC1CC1)CC1CC1)CC2 [Example 12, (+)-R-8-Methoxy-2-(di-cyclopropyl-methylamino)tetralin]
blood pressure lowering effects [5]: demonstrate blood pressure lowering effects

COc1cccc2c1CC(N(CCc1cccs1)CC1CC1)CC2 (stereo not shown) [Example 17, 8-Methoxy-2-(N-cyclopropylmethyl-N-(2-thiophenethyl)-amino)tetralin]
blood pressure lowering effects [5]: demonstrate blood pressure lowering effects

CC1(C)CC(=O)N(CCCCN2CCN(c3ncccn3)CC2)C(=O)C1 [Gepirone]
dopamine receptor antagonism / agonism (dopamine receptors): has dopamine antagonist properties

CN1CCc2cccc3c2[C@H]1Cc1ccc(O)c(O)c1-3 [apomorphine]
dopamine receptor antagonism / agonism (dopamine receptors): able to activate the dopamine autoreceptors as well as the post synaptic dopamine receptors

(-)-R-8-Methoxy-2-(di-cyclopropylmethylamino)tetralin [Example 13]
blood pressure lowering effects [5]: demonstrate blood pressure lowering effects
